Structures are written as SMILES. pIC50: −log10 of the molar value.

One data set concerns the target NR2B (Rattus norvegicus (Rat), UniProt Q00960). Briefly: NR2B rat cortical neuron calcium influx assay. Format: cell-based. The following applies: for pIC50: rat cortical neurons, glutamate and glycine stimulated calcium influx. The method in brief: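 Primary cortical neurons from E18 Sprague Dawley rat embryos, cultured 2 days, were loaded with Calcium 6 dye in 1.8 mM Ca-HBSS and preincubated with compound 2 h at 37° C. Glutamate plus glycine was added and fluorescence read for 2 min as peak/baseline ratio; duplicate dose-response curves gave IC50 (μM) and maximal inhibition.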

Another data set deals with hERG (Homo sapiens (Human), UniProt Q12809). Briefly: hERG Qpatch assay. In kind it is cell-based. The method, then:
Example 3. hERG Qpatch Assay Protocol
This assay was performed by the method described in Skepper et al., J. Med. Chem. 2020, 63, 7773-7816:
hERG expressing cell lines were produced in-house at Novartis using CHO-K1 T-Rex inducible plasmid system (Invitrogen) as described previously (Cao et al., Assay Drug Dev. Technol. 2010, 8, 766-780). Cell lines were maintained in Ham's F12 nutrient mixture containing 10% FBS, blasticidin ([…]; InvivoGen), hygromycin B ([…]; InvivoGen), Zeocin ([…], Invitrogen), and neomycin ([…], Invitrogen) using SelecT automated cell culture system (TAP Biosystems, Cambridge, U.K.). hERG and hCav1.2 channels expression was induced with tetracycline (0.25-1 μg/mL, Invitrogen) at least 24 h prior to the experiment.
hERG currents were recorded using the Qpatch automated patch clamp systems (Sophion Bioscience Inc., North Brunswick, NJ) in the whole (single) cell configuration. hERG expressing CHO-K1 cells were harvested with Detachin (Genlantis) and stored in the modified serum-free SFM-2 media (Life Technologies) at room temperature. The extracellular solution contained (in mM) NaCl (145), KCl (4), MgCl2 (1), CaCl2 (2), and HEPES (10), pH 7.4, with NaOH. The intracellular solution contained KCl (135), MgCl2 (1.75), CaCl2 (5.4), EGTA (10), K2-ATP (4), and HEPES (10), pH 7.2, with KOH. After whole cell configuration was achieved, the cell was held at −90 mV, and a 0.1 s pulse to −50 mV was delivered to measure the leaking current, which was subtracted from the tail current online. Then the cell was depolarized to +20 mV for 4 s (prepulse), followed by a 4 s test pulse to −50 mV to reveal the hERG tail current. To monitor changes in the current amplitude, this voltage protocol was repeatedly applied every 20 s. Test compounds were first diluted in DMSO for six dose-response experiments and then dissolved in the extracellular solution using Freedom EVO liquid handling robotic system (Tecan, Männedorf, Switzerland). The final DMSO concentration in samples was 0.3% v/v. Amitriptyline (Sigma) was tested as a positive control. Data were analyzed using in-house developed MatLab-based program (MathWorks, Natick, MA

A further data set concerns the target P-glycoprotein (P-gp) (Homo sapiens (Human), UniProt P08183). Briefly: MDCK-MDR1 permeability / efflux assay. In kind it is in vitro ADME. To be noted: for efflux ratio at 120 min, 10 μM: dog, MDCK-MDR1, pH 7.4, efflux ratio, read-out: MDCK-MDR1 ER. The method in brief:
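MDCK-MDR1 monolayers grown 4 days on Transwells; 10 μM compound in HBSS/10 mM HEPES pH 7.4 with 0.02% BSA, run A→B and B→A for 120 min at 37 °C without shaking. Donor and receiver concentrations by LC-MS/MS; Papp and recovery calculated, efflux ratio from B→A vs A→B.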

[1] abbreviates: Table 2, hERG expressing CHO-K1 cells.

NR2B, sequence (Q00960 27-1482, other chains not shown): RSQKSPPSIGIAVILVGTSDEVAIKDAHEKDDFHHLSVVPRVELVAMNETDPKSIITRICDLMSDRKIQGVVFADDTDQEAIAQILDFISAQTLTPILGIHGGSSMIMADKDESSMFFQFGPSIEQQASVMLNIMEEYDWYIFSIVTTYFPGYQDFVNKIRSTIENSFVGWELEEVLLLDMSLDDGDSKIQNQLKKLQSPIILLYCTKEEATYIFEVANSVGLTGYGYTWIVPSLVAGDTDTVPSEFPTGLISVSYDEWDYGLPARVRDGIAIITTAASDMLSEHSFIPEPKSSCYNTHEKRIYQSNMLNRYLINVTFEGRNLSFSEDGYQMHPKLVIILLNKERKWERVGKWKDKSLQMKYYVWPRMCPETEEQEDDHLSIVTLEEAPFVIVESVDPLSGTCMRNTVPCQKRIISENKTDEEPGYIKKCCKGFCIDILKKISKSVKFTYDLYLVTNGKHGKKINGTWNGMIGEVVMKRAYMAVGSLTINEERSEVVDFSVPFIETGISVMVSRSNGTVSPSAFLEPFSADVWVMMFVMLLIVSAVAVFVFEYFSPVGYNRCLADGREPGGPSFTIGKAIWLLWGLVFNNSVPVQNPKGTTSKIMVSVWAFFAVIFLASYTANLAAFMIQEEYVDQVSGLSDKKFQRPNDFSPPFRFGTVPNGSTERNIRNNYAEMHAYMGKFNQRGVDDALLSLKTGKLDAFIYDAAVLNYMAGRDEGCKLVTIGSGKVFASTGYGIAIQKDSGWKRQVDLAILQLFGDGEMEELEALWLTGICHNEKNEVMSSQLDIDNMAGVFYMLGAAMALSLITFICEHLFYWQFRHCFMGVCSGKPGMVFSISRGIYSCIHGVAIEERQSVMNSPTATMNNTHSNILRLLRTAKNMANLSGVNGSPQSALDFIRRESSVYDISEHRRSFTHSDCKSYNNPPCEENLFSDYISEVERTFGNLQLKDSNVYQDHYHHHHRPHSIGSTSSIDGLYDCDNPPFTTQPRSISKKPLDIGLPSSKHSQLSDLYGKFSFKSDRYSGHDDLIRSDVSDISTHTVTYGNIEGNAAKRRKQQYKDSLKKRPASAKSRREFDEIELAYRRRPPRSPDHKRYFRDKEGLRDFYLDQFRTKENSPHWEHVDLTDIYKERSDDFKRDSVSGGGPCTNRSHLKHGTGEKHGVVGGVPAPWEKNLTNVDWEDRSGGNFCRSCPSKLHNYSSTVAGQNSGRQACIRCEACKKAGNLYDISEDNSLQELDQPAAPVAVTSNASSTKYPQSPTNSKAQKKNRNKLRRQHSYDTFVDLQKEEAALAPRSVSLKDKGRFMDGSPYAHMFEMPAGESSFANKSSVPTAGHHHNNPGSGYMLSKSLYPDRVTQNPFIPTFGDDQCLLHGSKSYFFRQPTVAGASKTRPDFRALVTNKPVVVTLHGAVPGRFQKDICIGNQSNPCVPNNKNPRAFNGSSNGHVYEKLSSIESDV
hERG, sequence (Q12809 whole entry): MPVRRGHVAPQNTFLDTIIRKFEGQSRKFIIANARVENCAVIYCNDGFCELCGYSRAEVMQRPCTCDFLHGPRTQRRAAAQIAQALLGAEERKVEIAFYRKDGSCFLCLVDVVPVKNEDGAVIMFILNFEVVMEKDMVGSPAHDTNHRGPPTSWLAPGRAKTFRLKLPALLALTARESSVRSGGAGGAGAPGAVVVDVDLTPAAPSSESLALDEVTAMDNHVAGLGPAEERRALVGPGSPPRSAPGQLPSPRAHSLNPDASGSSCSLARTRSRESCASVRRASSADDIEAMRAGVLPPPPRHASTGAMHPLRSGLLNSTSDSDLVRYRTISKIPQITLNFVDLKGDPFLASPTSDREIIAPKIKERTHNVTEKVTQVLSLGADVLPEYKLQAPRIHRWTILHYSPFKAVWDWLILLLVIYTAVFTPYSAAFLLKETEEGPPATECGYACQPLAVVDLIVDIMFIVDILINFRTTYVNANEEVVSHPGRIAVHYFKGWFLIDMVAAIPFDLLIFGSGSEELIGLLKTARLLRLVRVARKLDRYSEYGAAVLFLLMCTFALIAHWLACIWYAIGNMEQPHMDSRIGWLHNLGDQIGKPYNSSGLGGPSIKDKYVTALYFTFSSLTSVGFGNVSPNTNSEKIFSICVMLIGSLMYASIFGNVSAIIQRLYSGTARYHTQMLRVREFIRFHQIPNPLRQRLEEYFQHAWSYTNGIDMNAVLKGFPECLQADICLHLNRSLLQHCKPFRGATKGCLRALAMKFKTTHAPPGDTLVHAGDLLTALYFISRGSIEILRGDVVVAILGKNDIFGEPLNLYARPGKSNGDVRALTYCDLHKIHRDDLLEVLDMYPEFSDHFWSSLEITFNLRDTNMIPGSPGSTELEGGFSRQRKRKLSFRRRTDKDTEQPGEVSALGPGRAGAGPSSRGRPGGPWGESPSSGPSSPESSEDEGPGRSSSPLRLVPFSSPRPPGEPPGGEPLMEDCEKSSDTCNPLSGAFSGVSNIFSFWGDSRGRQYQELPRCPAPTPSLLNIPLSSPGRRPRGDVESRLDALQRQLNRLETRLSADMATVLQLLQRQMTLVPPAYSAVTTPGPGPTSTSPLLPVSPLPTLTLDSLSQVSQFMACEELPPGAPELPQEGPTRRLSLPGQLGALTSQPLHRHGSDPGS
P-glycoprotein (P-gp), sequence (P08183 whole entry): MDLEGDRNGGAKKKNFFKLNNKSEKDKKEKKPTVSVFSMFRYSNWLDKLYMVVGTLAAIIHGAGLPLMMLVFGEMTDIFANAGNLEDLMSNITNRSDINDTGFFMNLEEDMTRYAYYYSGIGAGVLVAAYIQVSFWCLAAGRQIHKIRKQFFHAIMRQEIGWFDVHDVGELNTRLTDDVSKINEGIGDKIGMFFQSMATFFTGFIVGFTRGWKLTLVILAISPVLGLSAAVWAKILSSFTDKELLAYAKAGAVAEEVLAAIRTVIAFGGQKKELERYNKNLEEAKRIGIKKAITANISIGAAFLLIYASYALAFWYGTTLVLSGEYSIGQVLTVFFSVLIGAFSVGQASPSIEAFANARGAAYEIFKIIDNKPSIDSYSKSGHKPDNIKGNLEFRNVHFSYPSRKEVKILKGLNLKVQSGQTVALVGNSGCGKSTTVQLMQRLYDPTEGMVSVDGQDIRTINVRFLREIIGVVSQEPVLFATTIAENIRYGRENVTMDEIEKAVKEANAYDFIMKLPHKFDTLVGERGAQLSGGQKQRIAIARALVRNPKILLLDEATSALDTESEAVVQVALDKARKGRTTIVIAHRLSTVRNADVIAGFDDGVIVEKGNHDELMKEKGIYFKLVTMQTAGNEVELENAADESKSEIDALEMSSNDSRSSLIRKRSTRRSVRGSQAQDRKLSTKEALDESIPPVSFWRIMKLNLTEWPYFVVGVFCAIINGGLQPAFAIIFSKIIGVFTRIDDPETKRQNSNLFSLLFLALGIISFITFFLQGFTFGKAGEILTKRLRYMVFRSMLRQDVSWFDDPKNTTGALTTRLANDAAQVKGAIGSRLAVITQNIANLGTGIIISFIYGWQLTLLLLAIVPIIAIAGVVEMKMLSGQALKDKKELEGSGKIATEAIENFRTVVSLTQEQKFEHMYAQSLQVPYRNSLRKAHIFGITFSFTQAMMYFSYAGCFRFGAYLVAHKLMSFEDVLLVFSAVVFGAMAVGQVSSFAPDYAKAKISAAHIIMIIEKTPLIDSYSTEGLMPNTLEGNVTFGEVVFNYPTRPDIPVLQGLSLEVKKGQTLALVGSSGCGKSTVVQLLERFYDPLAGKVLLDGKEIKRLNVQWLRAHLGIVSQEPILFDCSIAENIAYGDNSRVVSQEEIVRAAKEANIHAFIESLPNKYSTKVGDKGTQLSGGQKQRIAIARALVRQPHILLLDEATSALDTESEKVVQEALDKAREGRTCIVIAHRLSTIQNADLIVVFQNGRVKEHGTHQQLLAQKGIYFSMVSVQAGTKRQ

Regarding `O=C1Nc2ccc([C@@H](O)CN3C[C@H]4C[C@H](Oc5ccccc5)C[C@@]4(O)C3)cc2CO1` (single isomer, unassigned) [Example 28A], the pIC50 at NR2B was 9.08; on hERG (setting [1]) it was 5.62. Further, the efflux ratio at 120 min, 10 μM on P-glycoprotein (P-gp) was 3.32.
Taken in the same sequence, the figures for `O=C1CCc2cc([C@H](O)CN3C[C@H]4C[C@H](Oc5ccccc5F)[C@H](O)[C@@]4(O)C3)cc(F)c2N1` (single isomer, unassigned) [Example 29B] were 7.96, 4.90 and 4.24.
The corresponding values for `O=C1CCc2cc([C@@H](O)CN3C[C@H]4C[C@H](Oc5ccccc5)C[C@@]4(O)C3)cc(F)c2N1` (single isomer, unassigned) [Example 31A] are 8.00, 5.14 and 1.63.
The corresponding values for `O=C1Nc2c(F)cc([C@@H](O)CN3C[C@H]4C[C@H](Oc5ccccc5)C[C@@]4(O)C3)cc2CO1` (single isomer, unassigned) [Example 33A] are 8.31, 5.09 and 1.87.
For the compound `O=C1Nc2c(F)cc([C@H](O)CN3C[C@H]4C[C@H](Oc5ccccc5)C[C@@]4(O)C3)cc2CO1` (single isomer, unassigned) [Example 33B], the pIC50 at NR2B is 8.44; against hERG (setting [1]), 5.31. Further, the efflux ratio at 120 min, 10 μM at P-glycoprotein (P-gp) was determined as 0.91.
For the compound `O=C1Nc2cc(F)c([C@@H](O)CN3C[C@H]4C[C@H](Oc5ccccc5)C[C@@]4(O)C3)cc2CO1` (single isomer, unassigned) [Example 36A], the pIC50 was 9.31 at NR2B and 5.26 against hERG (setting [1]). The efflux ratio at 120 min, 10 μM on P-glycoprotein (P-gp) came out at 4.04.
The corresponding values for `O=c1[nH]c2c(F)cc([C@@H](O)CN3C[C@H]4C[C@H](Oc5ccccc5)C[C@@]4(O)C3)cc2s1` (single isomer, unassigned) [Example 42A] are 9.72, 5.66 and 0.93.
Taken in the same sequence, the figures for `O=c1[nH]c2c(F)cc([C@H](O)CN3C[C@H]4C[C@H](Oc5ccccc5)C[C@@]4(O)C3)cc2s1` (single isomer, unassigned) [Example 42B] were 10.40, 6.10 and 0.9.
Taken in the same sequence, the figures for `O[C@H](CN1C[C@H]2C[C@H](Oc3ccccc3F)[C@H](O)[C@@]2(O)C1)c1cnc2[nH]ccc2c1` (single isomer, unassigned) [Example 44B] were 5.92, 4.80 and 7.34.
Turning to `O=C1CCc2cc(C(O)CN3CC4CC(Oc5ccccc5F)CC4(O)C3)ccc2N1` (stereo in doubt) [Example 5C, 6-((R)-2-((3aR,5R,6aS)-5-(2-fluorophenoxy)-3a-hydroxyhexahydrocyclopenta[c]pyrrol-2(1H)-yl)-1-hydroxyethyl)-3,4-dihydroquinolin-2(1H)-one], the “relative potency in the NR2B rat cortical neuron calcium influx assay” value on NR2B (comparison within Examples 5A/5B/5C/5D) is “more potent than Examples 5A and 5B”. Besides, the pIC50 is 9.23 on NR2B; 5.22 against hERG (setting [1]); 5.22 against hERG (Table 3, matched pairs). The efflux ratio at 120 min, 10 μM at P-glycoprotein (P-gp) was 2.07.
`O=C1CCc2cc([C@@H](O)CN3C[C@H]4C[C@H](Oc5ccccc5)C[C@@]4(O)C3)ccc2N1` [Example 1A, 6-((R)-1-hydroxy-2-((3aS,5S,6aR)-3a-hydroxy-5-phenoxyhexahydrocyclopenta[c]pyrrol-2(1H)-yl)ethyl)-3,4-dihydroquinolin-2(1H)-one]: the pIC50 at NR2B was 9.22; against hERG (setting [1]) it was 4.97. On P-glycoprotein (P-gp), the efflux ratio at 120 min, 10 μM was 3.02.
Taken in the same sequence, the figures for `O=C1CCc2cc([C@H](O)CN3C[C@H]4C[C@H](Oc5ccccc5)C[C@@]4(O)C3)ccc2N1` [Example 1B, 6-((S)-1-hydroxy-2-((3aS,5S,6aR)-3a-hydroxy-5-phenoxyhexahydrocyclopenta[c]pyrrol-2(1H)-yl)ethyl)-3,4-dihydroquinolin-2(1H)-one] were 8.80, 5.12 and 2.3.
For the compound `O[C@@H](CN1C[C@H]2C[C@H](Oc3ccc(F)cc3F)C[C@@]2(O)C1)c1ccc2[nH]ncc2c1` [Example 21], the pIC50 on NR2B is 7.96; against hERG (setting [1]), 5.44. The “MDCK-MDR1 ER” value at P-glycoprotein (P-gp) (efflux ratio, 10 μM, 120 min) was determined as 1.94.
